Results from PubChem BioAssay (NCI).
“And” between values parts separate entries of the source, which are not always exact repeats. Identical values can stand only once.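 Protocol summary: plate cells (96-well), add compound at 5 concentrations, incubate 48 h, interpolate endpoints linearly. GI50 is the concentration that inhibits growth by half. Definition used: TGI = concentration required for complete inhibition of growth.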

Legend:
Assay in all cases: NCI tumour cell line growth inhibition, 48 h
786-0 renal = system: 786-0 renal
A498 renal = system: A498 renal
A549 NSCLC = system: A549 NSCLC
ACHN renal = system: ACHN renal
BT-549 breast = system: BT-549 breast
CAKI-1 renal = system: CAKI-1 renal
CCRF-CEM leukemia = system: CCRF-CEM leukemia
COLO 205 colon = system: COLO 205 colon
DU-145 prostate = system: DU-145 prostate
EKVX NSCLC = system: EKVX NSCLC
HCC-2998 colon = system: HCC-2998 colon
HCT-116 colon = system: HCT-116 colon
HCT-15 colon = system: HCT-15 colon
HL-60(TB) leukemia = system: HL-60(TB) leukemia
HOP-62 NSCLC = system: HOP-62 NSCLC
HOP-92 NSCLC = system: HOP-92 NSCLC
HS 578T breast = system: HS 578T breast
HT29 colon = system: HT29 colon
IGROV1 ovarian = system: IGROV1 ovarian
K-562 leukemia = system: K-562 leukemia
KM12 colon = system: KM12 colon
LOX IMVI melanoma = system: LOX IMVI melanoma
M14 melanoma = system: M14 melanoma
MALME-3M melanoma = system: MALME-3M melanoma
MCF7 breast = system: MCF7 breast
MDA-MB-231 breast = system: MDA-MB-231 breast
MDA-MB-435 = system: MDA-MB-435
MOLT-4 leukemia = system: MOLT-4 leukemia
NCI-H226 lung = system: NCI-H226 lung
NCI-H23 lung = system: NCI-H23 lung
NCI-H460 lung = system: NCI-H460 lung
NCI-H522 lung = system: NCI-H522 lung
NCI/ADR-RES ovarian = system: NCI/ADR-RES ovarian
OVCAR-3 ovarian = system: OVCAR-3 ovarian
OVCAR-4 ovarian = system: OVCAR-4 ovarian
OVCAR-5 ovarian = system: OVCAR-5 ovarian
OVCAR-8 ovarian = system: OVCAR-8 ovarian
PC-3 prostate = system: PC-3 prostate
RPMI-8226 leukemia = system: RPMI-8226 leukemia
RXF 393 renal = system: RXF 393 renal
SF-268 CNS = system: SF-268 CNS
SF-295 CNS = system: SF-295 CNS
SF-539 CNS = system: SF-539 CNS
SK-MEL-2 melanoma = system: SK-MEL-2 melanoma
SK-MEL-28 melanoma = system: SK-MEL-28 melanoma
SK-MEL-5 melanoma = system: SK-MEL-5 melanoma
SK-OV-3 ovarian = system: SK-OV-3 ovarian
SN12C renal = system: SN12C renal
SNB-19 CNS = system: SNB-19 CNS
SNB-75 CNS = system: SNB-75 CNS
SR leukemia = system: SR leukemia
SW-620 colon = system: SW-620 colon
T-47D breast = system: T-47D breast
TK-10 renal = system: TK-10 renal
U251 CNS = system: U251 CNS
UACC-257 melanoma = system: UACC-257 melanoma
UACC-62 melanoma = system: UACC-62 melanoma
UO-31 renal = system: UO-31 renal

With `CC(C)(C)NC(=O)[C@H]1CC[C@H]2[C@@H]3CC[C@H]4NC(=O)C=C[C@]4(C)[C@H]3CC[C@]12C` the GI50 (786-0 renal) was > 100 µM, the TGI (786-0 renal) was > 100 µM and the GI50 (A498 renal) was 54.2 µM. For the same compound, the TGI (A498 renal) was > 100 µM, the GI50 (A549 NSCLC) was > 100 µM and the TGI (A549 NSCLC) was > 100 µM. The GI50 (ACHN renal) was > 100 µM, the TGI (ACHN renal) was > 100 µM and the GI50 (BT-549 breast) was 81.9 µM and > 100 µM. The TGI (BT-549 breast) was > 100 µM, the GI50 (CAKI-1 renal) was 77.9 µM and > 100 µM and the TGI (CAKI-1 renal) was > 100 µM. For the same compound, the GI50 (CCRF-CEM leukemia) was 84.2 µM and > 100 µM, the TGI (CCRF-CEM leukemia) was > 100 µM and the GI50 (COLO 205 colon) was > 100 µM. For the same compound, the TGI (COLO 205 colon) was > 100 µM, the GI50 (DU-145 prostate) was > 100 µM and the TGI (DU-145 prostate) was > 100 µM. The GI50 (EKVX NSCLC) was 70.1 µM and > 100 µM, the TGI (EKVX NSCLC) was > 100 µM and the GI50 (HCC-2998 colon) was > 100 µM. The TGI (HCC-2998 colon) was > 100 µM, the GI50 (HCT-116 colon) was > 100 µM and the TGI (HCT-116 colon) was > 100 µM. For the same compound, the GI50 (HCT-15 colon) was > 100 µM, the TGI (HCT-15 colon) was > 100 µM and the GI50 (HL-60(TB) leukemia) was 41.6 µM and > 100 µM. The TGI (HL-60(TB) leukemia) was > 100 µM, the GI50 (HOP-62 NSCLC) was > 100 µM and the TGI (HOP-62 NSCLC) was > 100 µM. For the same compound, the GI50 (HOP-92 NSCLC) was 30.3 µM, the TGI (HOP-92 NSCLC) was > 100 µM and the GI50 (HS 578T breast) was > 100 µM. The TGI (HS 578T breast) was > 100 µM, the GI50 (HT29 colon) was 44.9 µM and 69.6 µM and the TGI (HT29 colon) was > 100 µM. The GI50 (IGROV1 ovarian) was > 100 µM, the TGI (IGROV1 ovarian) was > 100 µM and the GI50 (K-562 leukemia) was 53.5 µM and > 100 µM. The TGI (K-562 leukemia) was > 100 µM, the GI50 (KM12 colon) was > 100 µM and the TGI (KM12 colon) was > 100 µM. For the same compound, the GI50 (LOX IMVI melanoma) was > 100 µM, the TGI (LOX IMVI melanoma) was > 100 µM and the GI50 (M14 melanoma) was > 100 µM. The TGI (M14 melanoma) was > 100 µM, the GI50 (MALME-3M melanoma) was 74.5 µM and > 100 µM and the TGI (MALME-3M melanoma) was > 100 µM. For the same compound, the GI50 (MCF7 breast) was > 100 µM, the TGI (MCF7 breast) was > 100 µM and the GI50 (MDA-MB-231 breast) was > 100 µM. The TGI (MDA-MB-231 breast) was > 100 µM, the GI50 (MDA-MB-435) was > 100 µM and the TGI (MDA-MB-435) was > 100 µM. The GI50 (MOLT-4 leukemia) was 66 µM and > 100 µM, the TGI (MOLT-4 leukemia) was > 100 µM and the GI50 (NCI-H226 lung) was > 100 µM. The TGI (NCI-H226 lung) was > 100 µM, the GI50 (NCI-H23 lung) was > 100 µM and the TGI (NCI-H23 lung) was > 100 µM. For the same compound, the GI50 (NCI-H460 lung) was > 100 µM, the TGI (NCI-H460 lung) was > 100 µM and the GI50 (NCI-H522 lung) was 23.2 µM and > 100 µM. The TGI (NCI-H522 lung) was > 100 µM, the GI50 (NCI/ADR-RES ovarian) was > 100 µM and the TGI (NCI/ADR-RES ovarian) was > 100 µM. For the same compound, the GI50 (OVCAR-3 ovarian) was > 100 µM, the TGI (OVCAR-3 ovarian) was > 100 µM and the GI50 (OVCAR-4 ovarian) was > 100 µM. For the same compound, the TGI (OVCAR-4 ovarian) was > 100 µM, the GI50 (OVCAR-5 ovarian) was > 100 µM and the TGI (OVCAR-5 ovarian) was > 100 µM. For the same compound, the GI50 (OVCAR-8 ovarian) was > 100 µM, the TGI (OVCAR-8 ovarian) was > 100 µM and the GI50 (PC-3 prostate) was 61 µM and > 100 µM. For the same compound, the TGI (PC-3 prostate) was > 100 µM, the GI50 (RPMI-8226 leukemia) was 42.8 µM and 67.2 µM and the TGI (RPMI-8226 leukemia) was > 100 µM. For the same compound, the GI50 (RXF 393 renal) was > 100 µM, the TGI (RXF 393 renal) was > 100 µM and the GI50 (SF-268 CNS) was > 100 µM. For the same compound, the TGI (SF-268 CNS) was > 100 µM, the GI50 (SF-295 CNS) was > 100 µM and the TGI (SF-295 CNS) was > 100 µM. For the same compound, the GI50 (SF-539 CNS) was > 100 µM, the TGI (SF-539 CNS) was > 100 µM and the TGI (SK-MEL-2 melanoma) was > 100 µM. For the same compound, the GI50 (SK-MEL-28 melanoma) was > 100 µM, the TGI (SK-MEL-28 melanoma) was > 100 µM and the GI50 (SK-MEL-5 melanoma) was 43.1 µM and > 100 µM. The TGI (SK-MEL-5 melanoma) was > 100 µM, the GI50 (SK-OV-3 ovarian) was > 100 µM and the TGI (SK-OV-3 ovarian) was > 100 µM. The GI50 (SN12C renal) was > 100 µM, the TGI (SN12C renal) was > 100 µM and the GI50 (SNB-19 CNS) was > 100 µM. For the same compound, the TGI (SNB-19 CNS) was > 100 µM, the GI50 (SNB-75 CNS) was > 100 µM and the TGI (SNB-75 CNS) was > 100 µM. For the same compound, the GI50 (SR leukemia) was > 100 µM, the TGI (SR leukemia) was > 100 µM and the GI50 (SW-620 colon) was > 100 µM. The TGI (SW-620 colon) was > 100 µM, the GI50 (T-47D breast) was > 100 µM and 67.2 µM and the TGI (T-47D breast) was > 100 µM. The GI50 (TK-10 renal) was > 100 µM, the TGI (TK-10 renal) was > 100 µM and the GI50 (U251 CNS) was > 100 µM. The TGI (U251 CNS) was > 100 µM, the GI50 (UACC-257 melanoma) was 48.3 µM and > 100 µM and the TGI (UACC-257 melanoma) was > 100 µM. The GI50 (UACC-62 melanoma) was > 100 µM, the TGI (UACC-62 melanoma) was > 100 µM and the GI50 (UO-31 renal) was 71.1 µM and > 100 µM. The TGI (UO-31 renal) was > 100 µM.
